Experimental data from patent US8404747B2, “Compositions and methods for modulating interaction between polypeptides” (The General Hospital Corporation, priority 2004, dated 2013).
“Also recorded” adds a separate entry of the source. One block for each compound: values may come before it.

Experiments:
htt103Q-EGFP = experiment: PC12 htt103Q-EGFP fluorescence assay; type: cell-based; details: PC12 cells
Excerpt: A PC12 cell line was engineered to express extended polyQ under the control of an ecdysone-inducible promoter. In the assay cell line, an N-terminal fragment of htt containing an extended polyQ tract was stably expressed as a fusion with EGFP (htt103Q-EGFP), from the pIND vector. Expression of extended polyQ in these cells was controlled by addition of an ecdysone analog, in this case muristerone A. In this assay, EGFP fluorescence directly correlated with htt103Q-EGFP expression levels. This system was designed to assess the effects of specific compounds on overall levels of extended polyglutamines in cells, using a simple fluorescent-based read-out.

proteasomal dysfunction = proteasomal dysfunction in PC12 cells expressing extended polyQ; type: cell-based
[1] = system: polyQ-containing polypeptides; experiment: aggregation of polyQ-containing polypeptides, assay not specified
[2] = system: SP1 trancription factor binding motif (6XSP1) promoter; experiment: 6XSP1 luciferase transcription-based assay in 111Q/111Q striatum double knock-in cells; type: cell-based, mouse; details: 6XSP1 luciferase reporter; CG4 among CG series, less potent than C9-4
Protocol: FIGS. 1A-1C. FIG. 1A is a bar graph showing luciferase expression in Sp1-luc/111Q striatum double knock-in cells following treatment with different compounds, as indicated. Fluorescence was measured 24 hours after addition of compound. FIG. 1B is a bar graph as described in FIG. 1A. Fluorescence was measured 48 hours after addition of compound. FIG. 1C is a bar graph as described in FIG. 1A. Fluorescence was measured 72 hours after addition of compound.
We conducted structure activity relationship (SAR) studies to optimize transcription activation. We developed a novel transcription-based assay for this purpose. A luciferase reporter gene was stably integrated into 111Q/111Q striatum double knock-in cells and constitutively expressed under control of a promoter containing six copies of the SP1 trancription factor binding motif (6XSP1). In this system, C9 was determined to have an EC200 of 7.5 μM.

HDAc = HDAc activity; type: biochemical
[3] = system: striatum of 11Q/111Q cells and PC12 cells; experiment: transcriptional activation or repression in striatum 111Q cells and PC12 cells; type: cell-based
Excerpt: Biochemical activity associated with C9-2 is not well understood. […] Future studies include testing the compound for anti-apoptotic activity, and transcriptional profiling using a striatum cell line derived from a double knock-out mutant htt mouse. The C9-2 analogs C9-2B (A30 in Table 1) and C9-2A (control) (A29 in Table 1) are being tested for an effect on photoreceptor neurodegeneration in the Drosophila HD model.

DNA = DNA binding activity
photoreceptor neurons = experiment: Drosophila HD photoreceptor neurodegeneration model; type: in vivo
Excerpt: A variety of animal models of Huntington disease have been developed. Examination of the degeneration of photoreceptor neurons facilitated by extended polyQ expression is one such model (Jackson et al., Neuron 21:633-642, 1998).
We used the photoreceptor model in Drosophila to test a variety of different compounds, including naphthylamine derivatives, for an effect on neurodegeneration. […] C9-2 is 2-(3-methoxypropyl)-1H-benzo[de]isoquinoline-1,3(2H)-dione.

p53 protein = experiment: levels of endogenous p53 protein in PC12 cells; type: cell-based, rat
Protocol: The protein levels of Htt fragments containing 103Q in PC12 cells were not affected by incubation with compounds at the concentrations tested. Furthermore, proteolytic capacity of cells treated with compound C2 appeared to be normal, since levels of a highly unstable endogenous p53 protein in PC12 cells were not changed.

[4] = system: aggregation of 103Q in PC12 cells; experiment: polyQ (103Q) aggregation in ecdyson-inducible PC12 cells; type: cell-based, rat
Protocol: (§1) To study the inhibitors we identified using the yeast screen in mammalian cells, we employed ecdyson-inducible rat phaeochromocytoma (PC12) cells. Compounds were tested in two clones, 14A2/5 and 14A2/6, with highest aggregation rate. We incubated undifferentiated PC12 cells with muristerone A to induce 103Q expression, and we exposed the cells to compounds at concentrations ranging from 1 to 10 μM. […] All compounds were non-toxic except C2, which was toxic at concentrations higher than 5 μM.
We tested these analogs at concentrations ranging from 0.025 μM to 5.0 μM for their effects on polyQ aggregation in PC12 cells. Among 24 analogs of C1; 28 analogs of C2; 24 analogs of C3, and 53 analogs of C4, we identified several potent inhibitors of polyQ aggregation. From our C2 focus library, we isolated compound C2-8 (B2 in Table 2), which inhibits polyQ aggregation with an IC50 value 50 nM. We also identified C2-10 (B6 in Table 2) and C2-11 (M16 (formula V(n)) in Table 5), and B7, B8 and B9 in Table 2. From our C3 focus library, we isolated compound C3-5 (M22 (formula V(t)) in Table 5) (having an IC50 value of 100 nM) and compound C3-6 (M17 (formula V(o)) in Table 5) (having an IC50 value of 5 μM). From our C4 library, we isolated compound C4-7 (A31 in Table 1), which has an IC50 value 100 nM. We also identified C4-34 (A3 in Table 1).

Cos1 cells = experiment: toxicity for Cos1 cells; type: cell-based
Protocol: The inhibitory activity we observed with C1-C4 in the PC12 cell model described above was confirmed in Cos1 cells transiently transfected with a CMV promoter-based DNA construct that encodes an Htt exon I fragment of Huntington's disease protein (Htt)) having 51 consecutive glutamine residues (HD Q51). When expressed in Cos1 cells, HD 51Q polypeptides readily form aggregates. Transfected Cos1 cells were incubated with C1-C4 compounds in culture medium and lysed. The lysates were then heat-denatured in SDS and passed through a cellulose acetate membrane, which captures aggregated, but not soluble polypeptides. Polyglutamine aggregates trapped on membranes were detected by immunostaining with antibody specific to extended polyQ. Pre-incubation of cells with compounds C1, C3, and C4 decreased the amount of retained polyQ, indicating inhibitory effects on polyQ aggregation. The IC50 for compound C1 was 10 μM and the IC50 for compounds C3 and C4 was 5 μM. As C2 was toxic for Cos1 cells, its effect on aggregation was not determined.

PC12 cells = experiment: toxicity in PC12 cells; type: cell-based, rat
Protocol: as §1
In the C1 library, no inhibitors of polyQ aggregation with high potency were found.

[5] = target: T1, Recombinant HD Q51 polypeptide (Homo sapiens, UniProt P42858, INS38QQQQQQQQQQQQQQQQQQQQQQQQQQQQQQ); experiment: cell-free trap assay of purified polyQ; type: biochemical; details: cell-free; up to 100 mM
T1 construct: made in house
T1 sequence (P42858 with tags, fused parts or gaps with the stated changes): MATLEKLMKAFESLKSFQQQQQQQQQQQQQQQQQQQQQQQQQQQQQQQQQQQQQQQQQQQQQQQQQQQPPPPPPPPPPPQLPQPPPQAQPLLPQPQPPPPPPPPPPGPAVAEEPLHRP
Protocol: To determine whether C2 could directly interfere with polyQ aggregation, we reproduced this process in vitro and assayed the inhibitory effects of the compounds in a cell-free trap assay. Recombinant HD Q51 polypeptide, purified from bacteria, was incubated in the presence or in the absence of C2 for a time sufficient to allow aggregation. Then, upon heat-denaturation in SDS buffer, samples were filtered through a cellulose acetate membrane. Harsh denaturation conditions separated unaggregated soluble peptides, which passed through the membrane, and insoluble aggregates, which were retained on the membrane. The polyQ aggregates trapped on the membrane were subsequently immunostained and quantified.
Congo Red, which is structurally unrelated to C2-8, was used as a control.

flies = experiment: toxicity to flies; design: species or system Drosophila; details: in vivo
Excerpt: Scriptaid was toxic to flies.

[6] = system: mutant Huntingtin transgene (htt); experiment: transgene (mutant htt, extended polyQ) expression in inducible PC12 cells; type: cell-based, rat; details: 2.5 μM
Excerpt: The compound C9 (A33 in Table 1) has structural similarity to the histone deacetylase (HDAc) inhibitor, scriptaid (6-(1,3-Dioxo-1H,3H-benzo[de]isoquinolin-2-yl)-N-hydroxyhexanamide) (Su et al., Cancer Res. 60:3137, 2000; A5 in Table 1). We observed the most dramatic effect on expression level by C9 and scriptaid in the PC12 cell line 14A2/6 expressing the extended polyQ mutant htt(104Q). The effect of C9 on the down-regulation of polyQ expression, was similar to cystamine, a drug that has shown efficacy in a mouse model for Huntington's Disease (HD). […] 14A2/6 cells were at least 5-fold more responsive to chemical treatment than other cell lines tested.
Transcriptional dysregulation is a hallmark of HD. […] Expression of the polypeptide was under control of an inducible ecdysone receptor (EcR)-based promoter.

Structure (SMILES): CCOC(=O)c1c(NC(=O)Cc2ccc(OC)cc2)sc(C(=O)Nc2ccccc2OC)c1C [Compound D1, 2-[2-(4-Methoxy-phenyl)-acetylamino]-5-(2-methoxy-phenylcarbamoyl)-4-methyl-thiophene-3-carboxylic acid ethyl ester]
effect on protein aggregation (htt103Q-EGFP): facilitators of protein aggregation
proteasomal dysfunction phenotype (proteasomal dysfunction): relieved this phenotype

Structure (SMILES): COCCCN1C(=O)c2cccc3cccc(c23)C1=O [Compound C9-2, 2-(3-Methoxy-propyl)-benzo[de]isoquinoline-1,3-dione]
effect on aggregation [1]: does not appear to suppress aggregation; also recorded: facilitate protein-protein aggregation
transcription activation [2]: did not effectively activate transcription
direct inhibition of HDAc activity (HDAc): does not appear to inhibit
transcriptional activation or repression [3]: no transcriptional activation or repression
DNA binding activity (DNA): nor has DNA binding activity been detected
neurodegeneration of photoreceptor neurons (photoreceptor neurons): dramatic neuroprotection

IC50 ([4]; Rattus norvegicus, PC-12, PC12 clones 14A2/5 and 14A2/6, muristerone A induced, 1 to 10 μM, read-out: IC50, aggregation of 103Q): 5 µM
aggregation of pure polyglutamines in vitro [5]: failed to block aggregation
Structure (SMILES): O=C(Nc1ccc(Br)cc1)c1ccc(Br)c(S(=O)(=O)NC2CCCCC2)c1 [Compound C2, 4-Bromo-N-(4-bromo-phenyl)-3-cyclohexylsulfamoyl-benzamide]
levels of endogenous p53 protein (p53 protein): not changed
toxicity for Cos1 cells (Cos1 cells): toxic
toxic concentrations (PC12 cells; PC12 cells): higher than 5 μM

Structure (SMILES): O=C(CCCCCN1C(=O)c2cccc3cccc(c23)C1=O)NO [Scriptaid, 6-(1,3-Dioxo-1H,3H-benzo[de]isoquinolin-2-yl)-hexanoic acid hydroxyamide, reference compound]
toxicity to flies (flies): toxic
cells with aggregation ([4]; 14A2/6 cells, 2.5 μM): 100%
cell viability (PC12 cells; 14A2/6 cells, 2.5 μM): cell death
expression of transgene ([6]; 14A2/6 cells): dramatic overexpression
expression of transgene ([6]; other cell lines): modestly stimulated

Structure (SMILES): CCOC(=O)c1c(NC(=O)c2ccccc2C)sc(C(=O)Nc2ccccc2OC)c1C [Compound D2, 5-(2-Methoxy-phenylcarbamoyl)-4-methyl-2-(2-methyl-benzoylamino)-thiophene-3-carboxylic acid ethyl ester]
effect on protein aggregation (htt103Q-EGFP): facilitators of protein aggregation
proteasomal dysfunction phenotype (proteasomal dysfunction): relieved this phenotype
